# According to US5587402A, “Regression of mammalian leukemia cell tumors” (priority 1995, dated 1996):
# Assays:
# NIH3T3 cells = experiment: Inhibition of NIH3T3 cell growth; assay type: cell-based, mouse; settings: FIG. 3
# Description: (§1) NIH3T3 (mouse embryo) cells were obtained from the American Type Culture Collection and were grown in Dulbecco's modified Eagle's medium supplemented with 10% calf serum. M600B immortalized human mammary epithelial cells (Stampfer, M. R., 1985, J. Tissue Culture Methods 9: 107-115) were obtained from Dr. Martha Stampfer and were grown in supplemented HCDB 170 medium (Hammond, et al. (1984) Proc. Natl. Acad. Sci U.S.A. 81: 5435-5439), as described previously (Stampfer, et al. (1985) Proc. Natl. Acad. Sci U.S.A. 82: 2394-2398; Eldridge, et al. (1989) Cancer Res. 49: 4326-4331).
# (§2) All cells were maintained in 100-mm dishes at 37° C. in a humidified 5% CO2 atmosphere. Viable cells were distinguished from nonviable cells by counting azure II/methylene blue-stained colonies 10 days after the cells were plated at a density of 100 cells per dish. Trypan blue exclusion was measured by incubating cells for 1 minute with one drop of trypan blue per 10 ml of cells. Viable (colorless) and nonviable (blue) cells were then counted on a hemocytometer.
# (§3) Additionally, growth of HT29 (human colon adenocarcinoma) cells was inhibited by 80% by 1 mM perillyl alcohol.
# [1] = system: isoprenylation of 21-26 kDa proteins in M600B cells; experiment: Protein isoprenylation in M600B human mammary epithelial cells; assay type: cell-based
# M600B cells = experiment: Inhibition of M600B cell growth; assay type: cell-based, human; settings: FIG. 4
# Description: as §1, §2, §3
# [2] = system: DMBA-induced rat mammary carcinomas; experiment: Pair-feeding study: regression and inhibition of DMBA-induced mammary carcinomas in rats; assay type: in vivo, Wistar-Furth female rats
# Description: We used Wistar-Furth female rats for in vivo studies. Wistar-Furth female rats were obtained from Harlan Sprague-Dawley, Inc., (Madison, Wis.). […] Rates were provided Teklad Lab blox chow and acidified water ad libitum.
# The DMBA was dissolved in a stock solution of 20 mg DMBA/ml sesame oil, heated and allowed to cool to room temperature before administration. DMBA (Eastman Kodak, Rochester, N.Y.) was given as a single gastric intubation of 50 mg DMBA/kg rat body weight.
# In the pair-feeding study, a group of 70 mammals was treated with DMBA. Beginning four weeks post-carcinogen administration, mammals were weighed and palpated weekly.
# Fresh diets were make every 7-10 days. All mammals were provided fresh diet daily to minimize evaporation of the monoterpenes.
# In a pair-feeding study, all palpable mammary tumors were classified as either "primary" tumors (i.e., the first tumor(s) palpated with a minimum diameter of 3 mm) or "secondary" tumors (i.e. a palpable tumor arising after initial diet assignment). […] All carcinogen-exposed mammals not bearing a first palpable tumor by week 15 post-carcinogen were removed from the experiment. Complete regression of a tumor was defined as non-palpability for a minimum of three consecutive weeks. All mammals in the pair-feeding study were followed for a minimum of 10 weeks post-diet assignment for tumor growth or regression at primary tumor sites and all other mammary glands. The rats were necropsied if moribund. Complete necropsies were performed on all rats at the termination of the study.
# [3] = system: isoprenylation of 21-26 kDa proteins in NIH3T3 (mouse embryo) cells; experiment: Protein isoprenylation in NIH3T3 cells (21-26 kDa bands, SDS-PAGE fluorography); assay type: cell-based
# Description: NIH3T3 (mouse embryo) cells were obtained from the American Type Culture Collection and were grown in Dulbecco's modified Eagle's medium supplemented with 10% calf serum. […] Because they carried a radioactive label, isoprenylated proteins were visualized by fluorography. As a control, cells were incubated without the monoterpene. […] Whole cell extracts were analyzed by SDS-PAGE on 16-cm×18-cm×0.75-mm gels by the method of Laemmli (supra). […] Gels were stained with Coomassie Brilliant Blue, equilibrated for 20 minutes in Amplify (Amersham Corp.) fluorographic reagent, dried under vacuum at 65° C., and exposed to […] Some fluorograms were analyzed further by densitometry. […] Protein content was measured by the method of Lowry, et al. […] FIG. 1 depicts the structures of these monoterpenes.
# [4] = system: p210-transformed FDC-P1 cells; experiment: Proliferation of p210 bcr/abl-transformed FDC-P1 myeloid cells; assay type: cell-based, murine; settings: up to 800 μM; FIG. 9A
# Description: (§4) (The p210 bcr/abl oncogene is carried on a helper-free retrovirus referred to as "p210.") FDC-P1 myeloid cells are an immature cell line from myeloid lineage derived from mouse bone marrow (Dexter, TM, J. Exp. Med. 152: 1036-1047, 1980).
# [5] = system: mammary, lung, and stomach cancers; settings: literature; cited from earlier work
# [6] = system: nontransformed FDC-P1 cells; experiment: Proliferation of nontransformed FDC-P1 myeloid cells; assay type: cell-based, murine; settings: up to 800 μM; FIG. 9A
# Description: as §4
# [7] = cited from earlier work
structure (smiles),measurement,setting,value
"C=C(C)[C@@H]1CC=C(C(=O)O)CC1 [Perillic acid, reference compound]",inhibition of cell growth,NIH3T3 cells,significantly inhibited cell growth in a dose-dependent manner
same,isoprenylation of 21-26 kDa proteins,"[1]; 5 mM, FIG. 2",inhibited significantly
same,inhibition of isoprenylation,[1]; all cell types examined,inhibition of isoprenylation
same,inhibition of cell growth,M600B cells,significantly inhibited cell growth in a dose-dependent manner
"C=C(C)[C@H]1CC=C(C)CC1 [limonene, d-Limonene]",number of secondary tumors compared with perillyl alcohol-fed mammals,[2]; 10% limonene diet versus 2.5% perillyl alcohol diet,higher
same,Time to Regress,"[2]; 10% limonene diet, Kaplan-Meier estimate of time when 25% of tumors will have regressed, p < 0.01, pair-fed control 14.5",3.25 wks
same,Primary Tumor Regression (tumors regressed / tumors),"[2]; 10% limonene diet, complete regression, p < 0.01 vs controls",19/28
same,Primary Tumor Regression (%),"[2]; 10% limonene diet, complete regression, pair-fed control 23%",68%
same,Number of Secondary Tumors/Rat,"[2]; 10% limonene diet, p < 0.01, pair-fed control 1.92",1.08
same,Secondary Tumor Regression (tumors regressed / tumors),"[2]; 10% limonene diet, p < 0.01, pair-fed control 9/48",17/27
same,Secondary Tumor Regression (%),"[2]; 10% limonene diet, pair-fed control 19%",63%
same,intensity of the 21-26-kDa bands,"[3]; 0.5 mM or 5 mM, fluorography",dose-responsive decrease in intensity
same,"intensity of the 66-, 46-, and 17-kDa bands","[3]; 0.5 mM or 5 mM, fluorography",not different from that of the control
same,activity at 500 µM,"[3]; Mus musculus, NIH3T3, 0.5 mM, slicing and scintillation counting, as reported in Crowell et al. (own work), read-out: isoprenylation of the 21-26-kDa bands remaining, of the control",~50%
same,activity at 5000 µM,"[3]; Mus musculus, NIH3T3, 5 mM, slicing and scintillation counting, as reported in Crowell et al. (own work), read-out: isoprenylation of the 21-26-kDa bands remaining, of the control",~25%
same,spot at the dye front,[3]; fluorography,reduced with maximal inhibition at 5 mM
same,effect on proliferation,[4],no effect
same,"activity against mammary, lung, and stomach cancers",[5],reported to have activity against mammary
same,effect on proliferation,[6],no effect
same,intensity of the 21-26 kDa bands,[1]; 5 mM limonene,marked decrease in the intensity of the 21-26 kDa bands
same,minimal effective concentration,"[1]; Homo sapiens, Epithelial cell, dose responsive, read-out: concentration required for significant inhibition of protein isoprenylation",≥ 1000 µM
same,toxicity to humans,[7]; at the required usage levels,not toxic to humans
same,side-effects,[7]; particularly when a large dose is required in a short period,not without some side-effects
